Test results taken from patent US9724319B2, “Compositions and methods for the reduction or prevention of hepatic steatosis” (priority 2014, dated 2017).

How the values were obtained:
[1] = system: liver mass or hepatic lipid accumulation; details: 25 mg icariin/kg diet; corresponding to 4 mg/kg body weight/day; cited from earlier work
[2] = system: hepatic steatosis (lipid vesicles in liver cells); assay: Histological analysis of hepatic lipid accumulation after high fat diet; details: Example 3; HFD mice, six weeks; therapeutic metformin; combination: leucine + metformin 0.5 g/kg
Description: (§1) Chronic high fat diet was used in C57Bl/6 mice as an experimental model of hepatic steatosis. Male C57/BL6 mice were either maintained on standard low-fat diet (control; LFD; 10% energy from fat) or placed on a high fat (HFD; 60% energy from fat, Research Diets #D12492, Research Diets, Inc, New Brunswick, N.J.) at six weeks of age to induce obesity and fatty infiltration of the liver. […] Animals were then randomized to treatments for an additional six weeks, with 10 animals per group, as specified in the following examples.
In this study, the effects of metformin alone (therapeutic dose), subtherapeutic metformin alone, subtherapeutic leucine, and various combinations of leucine, metformin, and resveratrol on liver weight and hepatic lipid accumulation were assessed. The 1.5 g/kg diet of metformin corresponds to a therapeutically effective dose of metformin in humans. […] Likewise, the 24 g/kg dose of leucine represents a sub-therapeutic dose that was predicted to exert no significant independent effects on liver mass or hepatic steatosis. […]
In this study, the effects of metformin alone (therapeutic dose) vs. combination therapy with sub-therapeutic amounts of metformin and leucine on liver weight and hepatic lipid accumulation were assessed. […]

[3] = system: HFD-induced hepatic steatosis; assay: Prophylactic treatment concurrent with high fat diet feeding (Examples 6-8); type: in vivo, C57Bl/6 mice; details: treatments and HFD initiated on the same day, six weeks, doses as Tables 25-27
Description: C57Bl/6 mice are assigned to the following experimental groups as depicted in Table 25: Drug treatments and high fat diet feeding (as described in Example 1) are initiated on the same day and are carried out for six weeks. The effects of the treatments and diet on liver mass and hepatic lipid accumulation are assessed as described in the preceding examples. […] C57Bl/6 mice are assigned to the following experimental groups as depicted in Table 26: Drug treatments and high fat diet feeding (as described in Example 1) are initiated on the same day and are carried out for six weeks. The effects of the treatments and diet on liver mass and hepatic lipid accumulation are assessed as described in the preceding examples. […] In this study, the prophylactic effects of sub-therapeutic leucine alone, and co-administration of leucine and the PDE5-specific inhibitor icariin on liver mass and hepatic steatosis are assessed. C57Bl/6 mice are assigned to the following experimental groups as depicted in Table 27: Drug treatments and high fat diet feeding (as described in Example 1) are initiated on the same day and are carried out for six weeks. The effects of the treatments and diet on liver mass and hepatic lipid accumulation are assessed as described in the preceding examples.

[4] = system: liver triglycerides; details: Example 3; HFD mice, six weeks; metformin alone 1.5 g/kg diet; combination: leucine + metformin 0.5 g/kg
Description: as §1
(§2) In this study, the effects of metformin alone (therapeutic dose) vs. combination therapy with sub-therapeutic amounts of metformin and leucine on liver weight and hepatic lipid accumulation were assessed. Following induction of hepatic steatosis as described in Example 1, animals were treated for six weeks according to the following treatment groups as depicted in Table 22:

[5] = system: high fat diet-induced hepatic steatosis; assay: Liver weight after treatment of high fat diet-induced hepatic steatosis; type: in vivo, C57Bl/6 mice; details: HFD mice, six weeks, metformin 1.5 g/kg diet
Description: as §1
In this study, the effects of metformin alone (therapeutic dose), subtherapeutic metformin alone, subtherapeutic leucine, and various combinations of leucine, metformin, and resveratrol on liver weight and hepatic lipid accumulation were assessed. The 1.5 g/kg diet of metformin corresponds to a therapeutically effective dose of metformin in humans. […] Likewise, the 24 g/kg dose of leucine represents a sub-therapeutic dose that was predicted to exert no significant independent effects on liver mass or hepatic steatosis. Following induction of hepatic steatosis as described in Example 1, animals were treated according to the following treatment groups as depicted in Table 21:
as §2

Row | Compound | Effect on hepatic lipid accumulation [1] | Effect on liver mass [1] | Effect on hepatic steatosis (histological analysis) [2] | Effect on HFD-induced hepatic lipid accumulation [3] | Effect on HFD-induced increase in liver mass [3] | Effect on liver triglycerides [4] | Effect on liver weight ([5]; Example 2, leucine 24 g/kg diet, resveratrol 12.5 mg/kg diet) | Effect on liver weight ([5]; Example 3) | Effect on liver weight ([5]; Example 4)
1 | COc1ccc(-c2oc3c(CC=C(C)C)c(O[C@@H]4O[C@H](CO)[C@@H](O)[C@H](O)[C@H]4O)cc(O)c3c(=O)c2O[C@@H]2O[C@@H](C)[C@H](O)[C@@H](O)[C@H]2O)cc1 [icariin] | no effect | no effect |  |  |  |  |  |  | 
2 | metformin |  |  | partially reversed hepatic steatosis | attenuates | attenuates | partially reversed the effect of high fat diet on liver triglycerides | partially reverse the effect of high fat diet on liver weight | reversed the effect of high fat diet on liver weight back to control levels | reversed the effect of high fat diet on liver weight back to control levels
